Measured values from patent US20250213542A1, “DEVICES AND METHODS FOR DELIVERING SYNERGISTIC ACTIVE AGENTS TO TARGET SITES” (IRRIMAX Corporation, priority 2023, published 2025).
Structures can show the parent of a compound that is named as a salt. Where two headings read alike, the source gives them in different places.

Legend:
Assay type in all cases: cell-based
[1] = test system: E. coli; assay: Chequerboard assay, FIC and synergy analysis; details: Escherichia coli
Method: (§1) Chlorhexidine gluconate (CHG) and octenidine dihydrochloride (OCT) were analyzed by chequerboard assay with each test organism to determine potential additive, synergistic, and antagonistic activity. The test organisms S. aureus, P. aeruginosa, and E. coli were tested at ranges of chlorhexidine gluconate (0.122-15.625 μg/ml, 1.25-160 μg/ml, and 0.125-16 μg/ml, respectively) and octenidine dihydrochloride (0.029-3.75 μg/mL, 0.029-3.75 μg/mL, and 0.029-3.75 μg/mL, respectively). FIC was calculated by the following Equation 2: […]

[2] = test system: P. aeruginosa; assay: Chequerboard assay, FIC and synergy analysis; details: Pseudomonas aeruginosa, P. aeruginosa, chequerboard
Method: as §1

[3] = test system: S. aureus; assay: Chequerboard assay, FIC and synergy analysis; details: Staphylococcus aureus
Method: as §1

[4] = test system: E. coli (ATCC BAA 1427); assay: Minimal bactericidal concentration determination, serial 2-fold dilution; details: E. coli (ATCC BAA 1427); for Number of Colonies: average of triplicate
Method: (§2) The minimal bactericidal concentration (MBC) of octenidine dihydrochloride was determined against S. aureus (ATCC 6538), P. aeruginosa (ATCC 15442), and E. coli (ATCC BAA 1427) by serial 2-fold dilution experiments. A solution of chlorhexidine (0.025% w/w) was used as a positive control and comparator.

[5] = test system: S. aureus (ATCC 6538); assay: as above; details: for Number of Colonies: average of triplicate
Method: as §2

[6] = test system: P. aeruginosa (ATCC 15442); assay: as above; details: for Number of Colonies: average of triplicate
Method: as §2

[7] = test system: E. coli (ATCC BAA 1427); assay: Minimum inhibitory concentration determination, serial 2-fold dilution; details: Escherichia coli
Method: (§3) The minimal inhibitory concentration (MIC, the minimum inhibitory concentration required for 90% growth reduction) of octenidine was determined against S. aureus (ATCC 6538), P. aeruginosa (ATCC 15442), and E. coli (ATCC BAA 1427) by serial 2-fold dilution experiments. A solution of chlorhexidine (0.025% w/w) was used as a positive control and comparator.

[8] = test system: S. aureus (ATCC 6538); assay: as above; details: Staphylococcus aureus, ATCC6538, S. aureus (ATCC 6538)
Method: as §3

[9] = test system: P. aeruginosa (ATCC 15442); assay: as above; details: Pseudomonas aeruginosa, ATCC15442, P. aeruginosa (ATCC 15442)
Method: as §3

[10] = in presence of CHG, read-out: MIC of OCT in Presence of CHG
[11] = 0.46875 μg/mL, read-out: Average Growth Inhibition (%)
[12] = 0.9375 μg/mL, read-out: Average Growth Inhibition (%)
[13] = 1.875 μg/mL, read-out: Average Growth Inhibition (%)
[14] = 3.75 μg/mL, read-out: Average Growth Inhibition (%)
[15] = 7.5 μg/mL, read-out: Average Growth Inhibition (%)
[16] = 15 μg/mL, read-out: Average Growth Inhibition (%)
[17] = 30 μg/mL, read-out: Average Growth Inhibition (%)
[18] = 60 μg/mL, read-out: Average Growth Inhibition (%)
[19] = read-out: MIC (inhibited greater than 90% growth)

CCCCCCCCN=c1ccn(CCCCCCCCCCn2ccc(=NCCCCCCCC)cc2)cc1 [Octenidine dihydrochloride, 1-Octanamine, N,N′-(1,10-decanediyldi-1(4H)-pyridinyl-4-ylidene)bis-]
MIC [1, 10]: 0.029 mg/L | MIC ([1]; read-out: MIC of OCT Alone): 1.88 mg/L | MIC [2, 10]: 0.938 mg/L | MIC ([2]; read-out: MIC of OCT Alone): 1.88 mg/L | MIC [3, 10]: 0.234 mg/L | MIC ([3]; read-out: MIC of OCT Alone): 0.938 mg/L | CFU/mL ([4]; 0.46875 μg/mL): Lawn (‘Lawn’indicates too many colonies to accurately count (e.g., greater than 250 colonies on an agar plate)) | Number of Colonies ([4]; 0.46875 μg/mL): Lawn (‘Lawn’indicates too many colonies to accurately count (e.g., greater than 250 colonies on an agar plate)) | CFU/mL ([4]; 0.9375 μg/mL): Lawn (‘Lawn’indicates too many colonies to accurately count (e.g., greater than 250 colonies on an agar plate)) | Number of Colonies ([4]; 0.9375 μg/mL): Lawn (‘Lawn’indicates too many colonies to accurately count (e.g., greater than 250 colonies on an agar plate)) | CFU/mL ([4]; 1.875 μg/mL): 0 CFU/mL | Number of Colonies ([4]; 1.875 μg/mL): 0 | CFU/mL ([4]; 3.75 μg/mL): 0 CFU/mL | Number of Colonies ([4]; 3.75 μg/mL): 0 | CFU/mL ([4]; 7.5 μg/mL): 0 CFU/mL | Number of Colonies ([4]; 7.5 μg/mL): 0 | CFU/mL ([4]; 15 μg/mL): 0 CFU/mL | Number of Colonies ([4]; 15 μg/mL): 0 | CFU/mL ([4]; 30 μg/mL): 0 CFU/mL | Number of Colonies ([4]; 30 μg/mL): 0 | CFU/mL ([4]; 60 μg/mL): 0 CFU/mL | Number of Colonies ([4]; 60 μg/mL): 0 | MBC ([4]; Escherichia coli, BAA1427, read-out: MBC (concentration having less than 500 CFU/mL)): 1.88 mg/L | CFU/mL ([5]; 0.46875 μg/mL): Lawn (‘Lawn’indicates too many colonies to accurately count (e.g., greater than 250 colonies on an agar plate)) | Number of Colonies ([5]; 0.46875 μg/mL): Lawn (‘Lawn’indicates too many colonies to accurately count (e.g., greater than 250 colonies on an agar plate)) | CFU/mL ([5]; 0.9375 μg/mL): 0 CFU/mL | Number of Colonies ([5]; 0.9375 μg/mL): 0 | CFU/mL ([5]; 1.875 μg/mL): 0 CFU/mL | Number of Colonies ([5]; 1.875 μg/mL): 0 | CFU/mL ([5]; 3.75 μg/mL): 566.67 CFU/mL | Number of Colonies ([5]; 3.75 μg/mL): 5.6667 | CFU/mL ([5]; 7.5 μg/mL): 0 CFU/mL | Number of Colonies ([5]; 7.5 μg/mL): 0 | CFU/mL ([5]; 15 μg/mL): 0 CFU/mL | Number of Colonies ([5]; 15 μg/mL): 0 | CFU/mL ([5]; 30 μg/mL): 0 CFU/mL | Number of Colonies ([5]; 30 μg/mL): 0 | CFU/mL ([5]; 60 μg/mL): 0 CFU/mL | Number of Colonies ([5]; 60 μg/mL): 0 | MBC ([5]; Staphylococcus aureus, ATCC6538, read-out: MBC (concentration having less than 500 CFU/mL)): 0.938 mg/L | CFU/mL ([6]; 0.46875 μg/mL): Lawn (‘Lawn’indicates too many colonies to accurately count (e.g., greater than 250 colonies on an agar plate)) | Number of Colonies ([6]; 0.46875 μg/mL): Lawn (‘Lawn’indicates too many colonies to accurately count (e.g., greater than 250 colonies on an agar plate)) | CFU/mL ([6]; 0.9375 μg/mL): Lawn (‘Lawn’indicates too many colonies to accurately count (e.g., greater than 250 colonies on an agar plate)) | Number of Colonies ([6]; 0.9375 μg/mL): Lawn (‘Lawn’indicates too many colonies to accurately count (e.g., greater than 250 colonies on an agar plate)) | CFU/mL ([6]; 1.875 μg/mL): 966.67 CFU/mL | Number of Colonies ([6]; 1.875 μg/mL): 9.667 | CFU/mL ([6]; 3.75 μg/mL): 0 CFU/mL | Number of Colonies ([6]; 3.75 μg/mL): 0 | CFU/mL ([6]; 7.5 μg/mL): 0 CFU/mL | Number of Colonies ([6]; 7.5 μg/mL): 0 | CFU/mL ([6]; 15 μg/mL): 0 CFU/mL | Number of Colonies ([6]; 15 μg/mL): 0 | CFU/mL ([6]; 30 μg/mL): 0 CFU/mL | Number of Colonies ([6]; 30 μg/mL): 0 | CFU/mL ([6]; 60 μg/mL): 0 CFU/mL | Number of Colonies ([6]; 60 μg/mL): 0 | MBC ([6]; Pseudomonas aeruginosa, ATCC15442, read-out: MBC (concentration having less than 500 CFU/mL)): 3.75 mg/L | inhibition at 0.46875 µg/mL ([7]; BAA1427, 0.46875 μg/mL, read-out: Average Growth Inhibition (%)): 6% | inhibition at 0.9375 µg/mL ([7]; BAA1427, 0.9375 μg/mL, read-out: Average Growth Inhibition (%)): 12% | inhibition at 1.875 µg/mL ([7]; BAA1427, 1.875 μg/mL, read-out: Average Growth Inhibition (%)): 100% | inhibition at 3.75 µg/mL ([7]; BAA1427, 3.75 μg/mL, read-out: Average Growth Inhibition (%)): 100% | inhibition at 7.5 µg/mL ([7]; BAA1427, 7.5 μg/mL, read-out: Average Growth Inhibition (%)): 100% | inhibition at 15 µg/mL ([7]; BAA1427, 15 μg/mL, read-out: Average Growth Inhibition (%)): 99% | inhibition at 30 µg/mL ([7]; BAA1427, 30 μg/mL, read-out: Average Growth Inhibition (%)): 97% | inhibition at 60 µg/mL ([7]; BAA1427, 60 μg/mL, read-out: Average Growth Inhibition (%)): 91% | MIC ([7]; BAA1427, read-out: MIC (inhibited greater than 90% growth)): 1.88 mg/L | inhibition at 0.46875 µg/mL [8, 11]: 50% | inhibition at 0.9375 µg/mL [8, 12]: 101% | inhibition at 1.875 µg/mL [8, 13]: 101% | inhibition at 3.75 µg/mL [8, 14]: 101% | inhibition at 7.5 µg/mL [8, 15]: 98% | inhibition at 15 µg/mL [8, 16]: 97% | inhibition at 30 µg/mL [8, 17]: 92% | inhibition at 60 µg/mL [8, 18]: 73% | MIC [8, 19]: 0.938 mg/L | inhibition at 0.46875 µg/mL [9, 11]: 2% | inhibition at 0.9375 µg/mL [9, 12]: 4% | inhibition at 1.875 µg/mL [9, 13]: 100% | inhibition at 3.75 µg/mL [9, 14]: 100% | inhibition at 7.5 µg/mL [9, 15]: 100% | inhibition at 15 µg/mL [9, 16]: 99% | inhibition at 30 µg/mL [9, 17]: 97% | inhibition at 60 µg/mL [9, 18]: 91% | MIC [9, 19]: 1.88 mg/L
